Laboratory results from patent US8318731B2, “Pyrrolopyrimidines” (Janssen Pharmaceutica NV, priority 2007, dated 2012).

What was measured:
PLK4 (h) = molecular target: T1, PLK4 (h) (Homo sapiens, UniProt O00444); assay: PLK-4 human kinase scintillation proximity assay (SPA); type: biochemical; conditions: 1 μM ATP, 60 minutes at r.t., read-out: PLK4 pIC50 (converted)
T1 sequence (O00444 1-970): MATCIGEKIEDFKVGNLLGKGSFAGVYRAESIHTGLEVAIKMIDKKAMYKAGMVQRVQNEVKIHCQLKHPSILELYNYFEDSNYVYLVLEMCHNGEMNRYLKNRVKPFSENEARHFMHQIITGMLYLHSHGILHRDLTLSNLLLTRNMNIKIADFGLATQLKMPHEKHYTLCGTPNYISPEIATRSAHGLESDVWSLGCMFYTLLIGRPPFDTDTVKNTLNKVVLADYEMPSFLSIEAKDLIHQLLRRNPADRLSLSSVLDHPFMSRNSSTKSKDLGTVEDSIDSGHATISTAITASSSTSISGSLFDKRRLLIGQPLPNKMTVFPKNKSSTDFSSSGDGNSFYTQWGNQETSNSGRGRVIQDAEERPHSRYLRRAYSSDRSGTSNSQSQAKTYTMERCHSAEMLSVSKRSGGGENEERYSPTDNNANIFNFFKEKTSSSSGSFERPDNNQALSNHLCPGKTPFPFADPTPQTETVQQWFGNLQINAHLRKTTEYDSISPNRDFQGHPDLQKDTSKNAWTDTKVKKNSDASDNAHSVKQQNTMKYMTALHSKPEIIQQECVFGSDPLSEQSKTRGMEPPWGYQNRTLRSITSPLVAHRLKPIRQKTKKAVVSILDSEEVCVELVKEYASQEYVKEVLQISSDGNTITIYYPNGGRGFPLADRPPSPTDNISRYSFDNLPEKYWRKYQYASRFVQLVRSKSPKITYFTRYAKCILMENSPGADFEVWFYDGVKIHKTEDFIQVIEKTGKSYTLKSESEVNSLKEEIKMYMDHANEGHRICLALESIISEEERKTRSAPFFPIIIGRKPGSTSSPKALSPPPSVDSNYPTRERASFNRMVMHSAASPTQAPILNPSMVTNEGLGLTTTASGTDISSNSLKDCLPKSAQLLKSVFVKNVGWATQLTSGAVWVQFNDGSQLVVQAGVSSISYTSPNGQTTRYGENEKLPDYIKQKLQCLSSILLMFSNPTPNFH
Description: The in vitro inhibition of a panel of kinases was assessed using either the scintillation proximity assay (SPA) as described by Cook, N. D. et al., Advances in Experimental Medicine and Biology (1991), 36; p. 525-528.
In the SPA technology the activity of the kinase of interest is measured using an appropriate biotinylated substrate that is incubated with the aforementioned kinase protein in the presence of (^33P) radiolabeled ATP. (^33P) Phosphorylation of the substrate is subsequently measured through binding of the phosphorylated substrate to streptavidine coated beads that are based on the scintillant poly(vinyl toluene) (PVT-Beads). The scintillation intensity is detected by imaging on Leadseeker.
All kinases are pre-diluted to a 10× working concentration prior to addition into the assay. The composition of the dilution buffer for each kinase is detailed below.
In a final reaction volume of 30 μl, PLK4 (h) (19 μg/ml) is incubated with 50 mM Hepes pH 8.0, 10 mM MgCl2, 50 mM NaCl, 1 mM NaF, 1 mM DTT, 10 μM of peptide Biotin-RPRGQRDSSYYWE-OH, 1 μM ATP and 2 nM [γ-^33P-ATP] (6.0 μCi/ml). After incubation of 60 minutes at r.t., the reaction is stopped by addition of 40 μL of stop solution containing 8.7 mM EDTA, BSA 0.17%, 0.17% Triton X-100, 1.7 mg/ml SPA beads (GE-healthcare). The plate is centrifuged and read for Scintillation imaging on Leadseeker.

HCT-116 = assay: Cellular proliferation assay (Alamar blue), HCT-116; type: cell-based; conditions: Homo sapiens; HCT-116 cells; 10% FCS; 72 h with compound; Alamar blue 4 h; read-out: pIC50 HCT-116 (converted)
Description: (§1) Cellular proliferation of these compounds was tested on a panel of different cell lines in the presence of 10% FCS serum (37° C. and 5% (v/v) CO2). In a first step these cells were seeded and incubated for 24 hours in the absence of compound. In the second step the cells were incubated for 72 hours with the compounds to be tested for 72 hours. The viable cell number was finally assessed in a standard Alamar blue cell viability assay.
(§2) The viable cell number was assessed by incubation for either 4 h (HCT-116, H1299) 6 h (U87-MG) or 24 h (A2780, PC3, MDA-MB-231) with Alamar blue (Resazurin 9 μg/ml, K-Ferrocyanide 90 μM, K-Ferricyanide 90 μM) and the converted fluorescent product was quantified on a fluorescent plate readed (544 nm/590 nm). Effect of the compounds is calculated as of on control cells.

H1299 = assay: Cellular proliferation assay (Alamar blue), H1299; type: cell-based; conditions: Homo sapiens, NCI-H1299, H1299 cells; 10% FCS; 72 h with compound; Alamar blue 4 h; read-out: pIC50 H1299 (converted)
Description: as §1, §2

U87-MG = assay: Cellular proliferation assay (Alamar blue), U87-MG; type: cell-based; conditions: Homo sapiens, U-87 MG; U87-MG cells; 10% FCS; 72 h with compound; Alamar blue 6 h; read-out: pIC50 U87MG (converted)
Description: as §1, §2

A2780 = assay: Cellular proliferation assay (Alamar blue), A2780; type: cell-based; conditions: Homo sapiens, A2780, A2780 cells; 10% FCS; 72 h with compound; Alamar blue 24 h; read-out: pIC50 A2780 (converted)
Description: as §1, §2

PC3 = assay: Cellular proliferation assay (Alamar blue), PC3; type: cell-based; conditions: Homo sapiens, PC-3, PC-3 cells; 10% FCS; 72 h with compound; Alamar blue 24 h; read-out: pIC50 PC-3 (converted)
Description: as §1, §2

MDA-MB-231 = assay: Cellular proliferation assay (Alamar blue), MDA-MB-231; type: cell-based; conditions: Homo sapiens, MDA-MB-231, MDA-MB-231 cells; 10% FCS; 72 h with compound; Alamar blue 24 h; read-out: pIC50 MDA/MB231 (converted)
Description: as §1, §2

SMILES	IC50 (PLK4 (h))	IC50 (HCT-116)	IC50 (H1299)	IC50 (U87-MG)	IC50 (A2780)	IC50 (PC3)	IC50 (MDA-MB-231)
COc1ccc2cc1OCC(=O)NCC1CN(Cc3c[nH]c4ncnc(c34)N2)C1 [Compound 88]	501 nM	5.01 µM	> 10 µM	10 µM	> 10 µM	> 10 µM	> 10 µM
CN1CCCN(C)C(=O)COc2cc(ccc2NC(=O)NC2CCCC2)Nc2ncnc3[nH]cc(c23)C1 [Compound 66]	39.8 nM	5.01 µM	> 10 µM	1.58 µM	> 10 µM	7.94 µM	> 10 µM
COCCOCCOc1ccc2cc1OCC(=O)N(C)CCCN(C)Cc1c[nH]c3ncnc(c13)N2 [Compound 128]	25.1 nM	0.501 µM	1 µM	2.51 µM	0.398 µM	6.31 µM	5.01 µM
CN1CCN(C)C(=O)CCCCOc2cccc(c2)Nc2ncnc3[nH]cc(c23)C1 [Compound 2]	3160 nM	> 10 µM	> 10 µM	> 10 µM	> 10 µM	> 10 µM	> 10 µM
COc1ccc2cc1OCC(=O)N[C@@H](C)CN(C)CCCc1c[nH]c3ncnc(c13)N2 [Compound 28]	> 10000 nM	> 10 µM	> 10 µM	> 10 µM	> 10 µM	> 10 µM	> 10 µM
COc1ccc2cc1OCCCCC(=O)N(C)CCN(C)Cc1c[nH]c3ncnc(c13)N2 [Compound 41]	2510 nM	> 10 µM	> 10 µM	> 10 µM	> 10 µM	> 10 µM	> 10 µM
COc1ccc2cc1OCCCC(=O)N1CCN(CC1)Cc1c[nH]c3ncnc(c13)N2 [Compound 105]	1000 nM	> 10 µM	> 10 µM	> 10 µM	> 10 µM	> 10 µM	> 10 µM
COc1ccc2cc1OCC(=O)N1CCC[C@H]1CN(C)CCCc1c[nH]c3ncnc(c13)N2 [Compound 27]	6310 nM	> 10 µM	> 10 µM	> 10 µM	> 10 µM	> 10 µM	> 10 µM
COc1ccc2cc1CN(C)CCCC(=O)N(C)CCCc1c[nH]c3ncnc(c13)N2 [Compound 5]	> 10000 nM	> 10 µM	> 10 µM	> 10 µM	> 10 µM	> 10 µM	> 10 µM
COc1cc(NC(=O)COc2ccc3cc2OCC(=O)N(C)CCCN(C)Cc2cn(C)c4ncnc(c24)N3)cc(OC)c1OC [Compound 145]	5010 nM	> 10 µM	> 10 µM	> 10 µM	> 10 µM	> 10 µM	> 10 µM
CN1CCN(C)C(=O)CCCOc2cccc(c2)Nc2ncnc3[nH]cc(c23)C1 [Compound 31]	794 nM	6.31 µM	> 10 µM	> 10 µM	3.98 µM	> 10 µM	> 10 µM
COc1ccc2cc1OCC(=O)N1CCCC(CN(C)CCCc3c[nH]c4ncnc(c34)N2)C1 (centres unmarked) [Compound 29]	> 10000 nM	> 10 µM	> 10 µM	> 10 µM	> 10 µM	> 10 µM	> 10 µM
CN1CCN(C)C(=O)COc2cc(ccc2Cl)Nc2ncnc3[nH]cc(c23)C1 [Compound 98]	100 nM	5.01 µM	> 10 µM	6.31 µM	> 10 µM	> 10 µM	> 10 µM
CN1CCCN(C)C(=O)COc2cc(ccc2OCC(=O)NC2CC2)Nc2ncnc3[nH]cc(c23)C1 [Compound 125]	25.1 nM	5.01 µM	6.31 µM	> 10 µM	1.26 µM	> 10 µM	> 10 µM
CN1CCN(C)C(=O)CCc2cccc(c2)Nc2ncnc3[nH]cc(c23)C1 [Compound 20]	631 nM	7.94 µM	10 µM	> 10 µM	> 10 µM	> 10 µM	> 10 µM
COc1cc2cc(c1OC)OCC(=O)N(C)CCCN(C)Cc1c[nH]c3ncnc(c13)N2 [Compound 57]	3980 nM	> 10 µM	> 10 µM	> 10 µM	> 10 µM	> 10 µM	> 10 µM
COc1ccc2cc1OCCCC(=O)N(C)CCCN(C)Cc1c[nH]c3ncnc(c13)N2 [Compound 17]	251 nM	> 10 µM	> 10 µM	> 10 µM	> 10 µM	> 10 µM	> 10 µM
Cc1nc2c3c(c[nH]c3n1)CN(C)CCCN(C)C(=O)COc1cc(ccc1Cl)N2 [Compound 148]	–	5.01 µM	3.98 µM	3.16 µM	1.58 µM	5.01 µM	10 µM
CN1CCCN(C)C(=O)COc2cc(ccc2OCCNc2ncccn2)Nc2ncnc3[nH]cc(c23)C1 [Compound 159]	–	2 µM	6.31 µM	3.16 µM	1.58 µM	7.94 µM	> 10 µM
CCOCCOc1cc(OC)c2cc1OCC(=O)N(C)CCCN(C)Cc1c[nH]c3ncnc(c13)N2 [Compound 151]	–	> 10 µM	> 10 µM	> 10 µM	> 10 µM	> 10 µM	> 10 µM
CN1CCCN(C)C(=O)COc2cc(ccc2OCCOc2cc(C(F)(F)F)ccn2)Nc2ncnc3[nH]cc(c23)C1 [Compound 154]	–	0.316 µM	0.631 µM	1 µM	0.251 µM	5.01 µM	5.01 µM
COc1ccc2cc1N(C)CC(=O)N(C)CCCN(C)Cc1c[nH]c3ncnc(c13)N2 [Compound 153]	–	1.58 µM	3.98 µM	3.16 µM	2 µM	6.31 µM	7.94 µM
